{"source": "ChEMBL document CHEMBL1932984", "about": "“Novel bis(indolyl)hydrazide-hydrazones as potent cytotoxic agents” (Bioorg Med Chem Lett, 2012)", "type_in_all_cases": "functional, cell-based", "key": {"MIA PaCa-2": {"tested_on": "MIA PaCa-2", "test": "Cytotoxicity against human MIAPaCa2 cells"}, "LNCaP": {"tested_on": "LNCaP", "test": "Cytotoxicity against human LNCAP cells"}, "MCF7": {"tested_on": "MCF7", "test": "Cytotoxicity against human MCF7 cells"}, "DU-145": {"tested_on": "DU-145", "test": "Cytotoxicity against human DU145 cells"}, "MDA-MB-231": {"tested_on": "MDA-MB-231", "test": "Cytotoxicity against human MDA-MB-231 cells"}, "PC-3": {"tested_on": "PC-3", "test": "Cytotoxicity against human PC3 cells"}}, "note": "pIC50: −log10 of the molar value.", "data": [{"smiles": "O=C(N/N=C\\c1cn(Cc2ccc(Cl)cc2)c2ccccc12)c1c[nH]c2ccccc12", "values": [{"measurement": "pIC50", "setting": "MIA PaCa-2", "value": 4.35}, {"measurement": "pIC50", "setting": "LNCaP", "value": "< 4.00"}, {"measurement": "pIC50", "setting": "MCF7", "value": 4.01}, {"measurement": "pIC50", "setting": "DU-145", "value": 4.28}, {"measurement": "pIC50", "setting": "MDA-MB-231", "value": 4.18}, {"measurement": "pIC50", "setting": "PC-3", "value": 4.79}]}, {"smiles": "O=C(N/N=C\\c1cn(Cc2ccc(Cl)cc2)c2ccc(Br)cc12)c1c[nH]c2ccccc12", "values": [{"measurement": "pIC50", "setting": "MIA PaCa-2", "value": 5.06}, {"measurement": "pIC50", "setting": "LNCaP", "value": 5.43}, {"measurement": "pIC50", "setting": "MCF7", "value": 5.49}, {"measurement": "pIC50", "setting": "DU-145", "value": 5.44}, {"measurement": "pIC50", "setting": "MDA-MB-231", "value": 6.00}, {"measurement": "pIC50", "setting": "PC-3", "value": 4.91}]}, {"smiles": "COc1ccc2c(c1)c(/C=N\\NC(=O)c1c[nH]c3ccccc13)cn2Cc1ccc(Cl)cc1", "values": [{"measurement": "pIC50", "setting": "MIA PaCa-2", "value": 4.57}, {"measurement": "pIC50", "setting": "LNCaP", "value": "< 4.00"}, {"measurement": "pIC50", "setting": "MCF7", "value": 5.06}, {"measurement": "pIC50", "setting": "DU-145", "value": 4.30}, {"measurement": "pIC50", "setting": "MDA-MB-231", "value": 4.08}, {"measurement": "pIC50", "setting": "PC-3", "value": 4.52}]}, {"smiles": "O=C(N/N=C\\c1cn(Cc2ccc(Cl)cc2)c2cc(F)ccc12)c1c[nH]c2ccccc12", "values": [{"measurement": "pIC50", "setting": "MIA PaCa-2", "value": 4.74}, {"measurement": "pIC50", "setting": "LNCaP", "value": 4.26}, {"measurement": "pIC50", "setting": "MCF7", "value": 5.22}, {"measurement": "pIC50", "setting": "DU-145", "value": 4.73}, {"measurement": "pIC50", "setting": "MDA-MB-231", "value": 5.28}, {"measurement": "pIC50", "setting": "PC-3", "value": 4.71}]}, {"smiles": "COc1ccc2c(c1)c(/C=N\\NC(=O)c1c[nH]c3ccc(Br)cc13)cn2Cc1ccc(Cl)cc1", "values": [{"measurement": "pIC50", "setting": "MIA PaCa-2", "value": 4.58}, {"measurement": "pIC50", "setting": "LNCaP", "value": "< 4.00"}, {"measurement": "pIC50", "setting": "MCF7", "value": 4.54}, {"measurement": "pIC50", "setting": "DU-145", "value": 4.24}, {"measurement": "pIC50", "setting": "MDA-MB-231", "value": 5.30}, {"measurement": "pIC50", "setting": "PC-3", "value": 4.80}]}, {"smiles": "O=C(N/N=C\\c1cn(Cc2ccc(Cl)cc2)c2cc(F)ccc12)c1c[nH]c2ccc(Br)cc12", "values": [{"measurement": "pIC50", "setting": "MIA PaCa-2", "value": 4.97}, {"measurement": "pIC50", "setting": "LNCaP", "value": 4.61}, {"measurement": "pIC50", "setting": "MCF7", "value": 5.08}, {"measurement": "pIC50", "setting": "DU-145", "value": 4.90}, {"measurement": "pIC50", "setting": "MDA-MB-231", "value": 5.29}, {"measurement": "pIC50", "setting": "PC-3", "value": 4.91}]}, {"smiles": "COc1ccc(Cn2cc(/C=N\\NC(=O)c3c[nH]c4ccccc34)c3ccccc32)cc1", "values": [{"measurement": "pIC50", "setting": "MIA PaCa-2", "value": 4.38}, {"measurement": "pIC50", "setting": "LNCaP", "value": 4.50}, {"measurement": "pIC50", "setting": "MCF7", "value": 4.91}, {"measurement": "pIC50", "setting": "DU-145", "value": 4.36}, {"measurement": "pIC50", "setting": "MDA-MB-231", "value": 4.82}, {"measurement": "pIC50", "setting": "PC-3", "value": 4.84}]}, {"smiles": "COc1ccc(Cn2cc(/C=N\\NC(=O)c3c[nH]c4ccccc34)c3cc(OC)ccc32)cc1", "values": [{"measurement": "pIC50", "setting": "MIA PaCa-2", "value": 4.52}, {"measurement": "pIC50", "setting": "LNCaP", "value": "< 4.00"}, {"measurement": "pIC50", "setting": "MCF7", "value": 4.82}, {"measurement": "pIC50", "setting": "DU-145", "value": 4.72}, {"measurement": "pIC50", "setting": "MDA-MB-231", "value": 5.01}, {"measurement": "pIC50", "setting": "PC-3", "value": 4.87}]}, {"smiles": "COc1ccc(Cn2cc(/C=N\\NC(=O)c3c[nH]c4ccccc34)c3ccc(F)cc32)cc1", "values": [{"measurement": "pIC50", "setting": "MIA PaCa-2", "value": 4.36}, {"measurement": "pIC50", "setting": "LNCaP", "value": "< 4.00"}, {"measurement": "pIC50", "setting": "MCF7", "value": 4.88}, {"measurement": "pIC50", "setting": "DU-145", "value": 4.79}, {"measurement": "pIC50", "setting": "MDA-MB-231", "value": 4.15}, {"measurement": "pIC50", "setting": "PC-3", "value": 4.74}]}, {"smiles": "COc1ccc(Cn2cc(/C=N\\NC(=O)c3c[nH]c4ccc(Br)cc34)c3ccc(F)cc32)cc1", "values": [{"measurement": "pIC50", "setting": "MIA PaCa-2", "value": 4.34}, {"measurement": "pIC50", "setting": "LNCaP", "value": "< 4.00"}, {"measurement": "pIC50", "setting": "MCF7", "value": 4.50}, {"measurement": "pIC50", "setting": "DU-145", "value": 4.17}, {"measurement": "pIC50", "setting": "MDA-MB-231", "value": 4.00}, {"measurement": "pIC50", "setting": "PC-3", "value": 4.66}]}, {"smiles": "COc1ccc(Cn2cc(/C=N\\NC(=O)c3c[nH]c4ccc(Br)cc34)c3cc(OC)ccc32)cc1", "values": [{"measurement": "pIC50", "setting": "MIA PaCa-2", "value": 4.35}, {"measurement": "pIC50", "setting": "LNCaP", "value": "< 4.00"}, {"measurement": "pIC50", "setting": "MCF7", "value": 5.51}, {"measurement": "pIC50", "setting": "DU-145", "value": 4.07}, {"measurement": "pIC50", "setting": "MDA-MB-231", "value": 4.21}, {"measurement": "pIC50", "setting": "PC-3", "value": 4.55}]}, {"smiles": "COc1ccc(Cn2cc(/C=N\\NC(=O)c3cn(C)c4ccccc34)c3ccc(F)cc32)cc1", "values": [{"measurement": "pIC50", "setting": "MIA PaCa-2", "value": 4.25}, {"measurement": "pIC50", "setting": "LNCaP", "value": 5.02}, {"measurement": "pIC50", "setting": "MCF7", "value": 4.65}, {"measurement": "pIC50", "setting": "DU-145", "value": 4.82}, {"measurement": "pIC50", "setting": "MDA-MB-231", "value": 4.75}, {"measurement": "pIC50", "setting": "PC-3", "value": 4.89}]}, {"smiles": "Cn1cc(C(=O)N/N=C\\c2cn(Cc3ccc(Cl)cc3)c3cc(F)ccc23)c2ccccc21", "values": [{"measurement": "pIC50", "setting": "MIA PaCa-2", "value": 4.30}, {"measurement": "pIC50", "setting": "LNCaP", "value": "< 4.00"}, {"measurement": "pIC50", "setting": "MCF7", "value": 4.04}, {"measurement": "pIC50", "setting": "DU-145", "value": 4.07}, {"measurement": "pIC50", "setting": "MDA-MB-231", "value": "< 4.00"}, {"measurement": "pIC50", "setting": "PC-3", "value": 4.66}]}, {"smiles": "COc1ccc2c(c1)c(/C=N\\NC(=O)c1cn(C)c3ccccc13)cn2Cc1ccc(Cl)cc1", "values": [{"measurement": "pIC50", "setting": "MIA PaCa-2", "value": 4.25}, {"measurement": "pIC50", "setting": "LNCaP", "value": "< 4.00"}, {"measurement": "pIC50", "setting": "MCF7", "value": 4.00}, {"measurement": "pIC50", "setting": "DU-145", "value": 4.03}, {"measurement": "pIC50", "setting": "MDA-MB-231", "value": "< 4.00"}, {"measurement": "pIC50", "setting": "PC-3", "value": 4.67}]}, {"smiles": "COc1cccc2c1C(=O)c1c(O)c3c(c(O)c1C2=O)C[C@@](O)(C(=O)CO)C[C@@H]3O[C@H]1C[C@H](N)[C@H](O)[C@H](C)O1", "note": "[DOXORUBICIN]", "values": [{"measurement": "pIC50", "setting": "MIA PaCa-2", "value": 4.74}, {"measurement": "pIC50", "setting": "LNCaP", "value": 5.28}, {"measurement": "pIC50", "setting": "MCF7", "value": 4.93}, {"measurement": "pIC50", "setting": "DU-145", "value": 4.81}, {"measurement": "pIC50", "setting": "MDA-MB-231", "value": 5.51}, {"measurement": "pIC50", "setting": "PC-3", "value": 4.21}]}]}
